Measured values published in PubChem BioAssay (NCI).
Values joined by “and” are separate entries in the source; they are usually repeats but may differ in a detail not shown here. Identical values can stand only once.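 Step 1: Grow cells in 96-well plates. Step 2: Expose to compound for 48 hours at 5 concentrations. Step 3: Interpolate endpoints linearly; if unreached, use highest concentration. GI50 = concentration required for 50% inhibition of growth. TGI: concentration producing complete growth inhibition.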

Tests used:
Experiment in all cases: NCI tumour cell line growth inhibition, 48 h
[1] = system: SF-539 CNS
[2] = system: SK-MEL-5 melanoma
[3] = system: COLO 205 colon
[4] = system: HCT-116 colon
[5] = system: HCT-15 colon
[6] = system: LOX IMVI melanoma
[7] = system: HCC-2998 colon
[8] = system: A549 NSCLC
[9] = system: MOLT-4 leukemia
[10] = system: OVCAR-8 ovarian

Structure (SMILES) | GI50 [1] | TGI [1] | GI50 [2] | TGI [2] | GI50 [3] | TGI [3] | GI50 [4] | TGI [4] | GI50 [5] | TGI [5] | GI50 [6] | TGI [6] | GI50 [7] | TGI [7] | GI50 [8] | TGI [8] | GI50 [9] | TGI [9] | GI50 [10] | TGI [10]
CC(C)CCC[C@@H](C)[C@H]1CC[C@H]2[C@@H]3CC=C4C[C@@H](C(C(=O)O)C(=O)O)CC[C@]4(C)[C@H]3CC[C@]12C | 0.107 µM | 0.407 µM | 0.113 µM | 0.266 µM | 0.111 µM | 0.247 µM | 0.101 µM | 0.798 µM | 0.148 µM | 0.612 µM | 0.139 µM | 0.468 µM | 0.185 µM | 1.28 µM | 0.145 µM | 0.547 µM | 0.248 µM | 2.05 µM | 0.158 µM | 0.807 µM
COc1ccc2c(c1)/C(=C/c1c(C)nc3sc(C)nn13)C(=O)N2 | 3.29 µM | > 50.7 µM | 1.5 µM | > 100 µM | 0.614 µM | 4.96 µM | 1.77 µM | > 100 µM | 0.879 µM | > 100 µM | 5.49 µM | > 100 µM | 0.632 µM | 7.86 µM | 7.74 µM | > 100 µM | 2.64 µM | > 100 µM | 6.38 µM | > 100 µM
Cn1cc(C2=C(c3cn(C)c4ncccc34)C(=O)NC2=O)c2ccccc21 | 5.35 µM | 14.3 µM | 6.27 µM | > 17.6 µM | 5.23 µM | 13 µM | 8.39 µM | > 25 µM | 7.34 µM | > 25 µM | 6.97 µM | > 25 µM | > 21.2 µM | > 25 µM | 10.1 µM | > 25 µM | 7.54 µM | > 24 µM | 10.1 µM | > 25 µM
O=C(/C=C/C12c3ccccc3C(c3ccccc31)C1C(=O)NC(=O)C12)c1ccncc1 (centres undefined) | 2.03 µM | 5.72 µM | 1.72 µM | 3.25 µM | 3.57 µM | 9.43 µM | 1.58 µM | 4.31 µM | 1.46 µM | 3.94 µM | 1.68 µM | 3.51 µM | 1.87 µM | 3.68 µM | 13.4 µM | 27.2 µM | 2.57 µM | 9.17 µM | 2.41 µM | 8.2 µM
COc1ccc2c(C3=C(c4cn(C)c5ccccc45)C(=O)NC3=O)cn(C)c2c1 | 0.0556 µM | 0.134 µM | 0.0899 µM | 2.57 µM | 0.0917 µM | 0.323 µM | 0.112 µM | > 25 µM | 0.116 µM | > 25 µM | 0.154 µM | > 25 µM | 0.41 µM | > 25 µM | 0.135 µM | > 25 µM | 0.24 µM | > 24 µM | 0.15 µM | > 25 µM
COC1=CC(c2ccc[nH]2)=N/C1=C\c1[nH]c(C)c(C(=O)OC(C)C)c1C | 0.069 µM | 1.53 µM | 0.0242 µM | 0.0773 µM | 0.0733 µM | 1.46 µM | 0.0274 µM | 1.07 µM | 0.026 µM | 1.14 µM | 0.0163 µM | 0.0372 µM | 0.0485 µM | 1.36 µM | 0.0505 µM | 1.05 µM | 0.0346 µM | 3.51 µM | 0.0397 µM | 1.04 µM
CCC(CO)Nc1nc2ccc(Cl)cc2c2ccccc12 (centres undefined) | 10.4 µM | 22.2 µM | 11.2 µM | 23.3 µM | 11.9 µM | 25.6 µM | 10.8 µM | 22.7 µM | 3.7 µM | 15.4 µM | 6.17 µM | 19.4 µM | 2.82 µM | 10.6 µM | 6.05 µM | 20.4 µM | 3.55 µM | 15.2 µM | 11.4 µM | 29.3 µM
CCOC(=O)C1=C(C)NC(=S)NC1c1ccccc1 (centres undefined) |  | > 100 µM |  | > 100 µM |  | > 60.7 µM |  | > 100 µM |  | > 56 µM |  | > 100 µM |  | > 100 µM |  | > 100 µM |  | > 100 µM |  | > 100 µM
COC(CN1C(=O)c2cccc3cccc(c23)C1=O)OC |  | > 100 µM |  | > 100 µM |  | > 100 µM |  | > 100 µM |  | > 100 µM |  | > 100 µM |  | > 100 µM |  | > 100 µM |  | > 100 µM |  | > 100 µM
Cc1nc2ccccc2c(N)c1-c1cc(C)c2c(C)nc3ccccc3c2n1 | 1.31 µM | 2.59 µM | 18.2 µM | > 37.4 µM | 0.817 µM | 2.25 µM | 0.257 µM | 0.728 µM | 0.216 µM | 0.562 µM | 0.248 µM | 0.717 µM | 0.627 µM | 1.95 µM | 0.243 µM | 0.681 µM | 0.54 µM |  | 1.41 µM | 2.95 µM
COC1CCC(N2C(=O)CNc3ncc(-c4ccc(C(C)(C)O)nc4)nc32)CC1 (centres undefined) | 1.42 µM and 0.335 µM | 6.95 µM and 4.7 µM | 0.766 µM and 0.149 µM | 2.79 µM and 1.46 µM | 1.03 µM and 0.176 µM | > 8.63 µM and 9.06 µM | 2.07 µM and 0.809 µM | > 10 µM and 13.8 µM | 0.732 µM and 0.293 µM | > 36.1 µM | 1.35 µM and 0.329 µM | > 34.2 µM | 1.98 µM and 0.306 µM | > 39.2 µM | 1.48 µM and 0.337 µM | > 34.5 µM | 1.51 µM and 0.437 µM | > 100 µM | 1.27 µM and 0.436 µM | > 35.2 µM
O=C1CC(c2ccc3c(c2)OCO3)Nc2ccccc21 (centres undefined) | 10.8 µM | 24 µM | 12.6 µM | 25.8 µM | 16.5 µM | 37.2 µM | 10.2 µM | 23.9 µM | 5.61 µM | 31 µM | 5.91 µM | 20.5 µM | 15.8 µM | 30.4 µM | 17.1 µM | 76.6 µM | 12.8 µM | 64.2 µM | 14.4 µM | 63.3 µM
C=C1C(=O)C23CC1CCC2C12CO[C@@H]4OCC(C)(CC[C@@H]1OC3=O)C42 (some centres undefined) |  | 14.8 µM |  | 28.3 µM |  | 4.34 µM |  | 6.33 µM |  | 7.88 µM |  | 3.44 µM |  | 30.9 µM |  | 25.1 µM |  | 9.7 µM |  | 9.78 µM
